Reference: patent publication US6344457B1, “Amino acid derivatives inhibiting extracellular matrix metalloproteinase and TNF alpha release” (Chiesi Farmaceutici S.p.A., priority 1997, dated 2002)
Where two headings read alike, the source gives them in different places.

Assays:
[1] = Determination of bioavailability (blood levels, ex-vivo bioassay); format: in vivo; details: mouse, blood, 50 mg/kg, mice; for concentration at 24 h: read-out: blood level, P.o. method, 24 h
Method: The compounds of this invention were administered i.p. or p.o. between 1 and 50 mg/kg to mice: the blood levels then were determined by an ex-vivo bioassay according to Wang X. et al. (Cancer Res., 54, 4726-4728, 1994). The introduction of an OH group systematically increases the bioavailability of the products.

[2] = molecular target: T1, collagenase of the human monocytic stock U937 (Homo sapiens, UniProt P03956); test: Activity on collagenase; format: biochemical; details: radiomarked collagen, 27° C., 16 hours; read-out: C150 (nM) collagenase
T1 construct: the collagenase of the human monocytic stock U937; endogenous in cells; host or cells: U937 human monocytic cell line
T1 sequence (P03956 100-469): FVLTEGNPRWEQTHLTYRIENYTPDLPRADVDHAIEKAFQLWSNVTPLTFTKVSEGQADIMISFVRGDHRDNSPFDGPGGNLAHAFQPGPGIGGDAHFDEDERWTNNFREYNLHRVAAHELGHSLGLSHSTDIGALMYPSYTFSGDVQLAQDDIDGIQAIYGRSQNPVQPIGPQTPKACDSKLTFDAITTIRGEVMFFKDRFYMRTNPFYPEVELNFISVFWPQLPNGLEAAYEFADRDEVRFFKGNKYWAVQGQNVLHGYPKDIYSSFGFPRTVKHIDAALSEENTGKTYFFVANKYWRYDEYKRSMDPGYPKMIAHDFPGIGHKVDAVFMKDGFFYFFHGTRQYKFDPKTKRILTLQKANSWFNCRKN
Method: The collagenase was incubated at 27° C. for 16 hours with radiomarked collagen, and its activity was determined by the release of soluble peptides produced by the enzymatic breakdown of the collagen. The inhibiting concentration C150 for each compound was determined by measurement of the activity of the enzyme in the presence of the inhibitor at a concentration ranging between 10^−7 and 10^−12 M (the inhibitor is dissolved at a concentration of 10^−2 M in DMSO, then diluted successively by tenths in the buffer: Tris, HCl 150 mM, pH 7.5; NaCl 0.15 M; CaCl2 10 mM).

[3] = molecular target: 92 kDa gelatinase of human origin (Homo sapiens, UniProt P14780); test: Activity on gelatinase, radiomarked gelatin; format: biochemical; details: test performed with radiomarked gelatin; read-out: C150 (nM) gelatinase 92 kDa*
Method: The anti-gelatinase activity of the compounds according to the invention also was determined on 92 kDa or 72 kDa gelatinase of human origin, in accordance with the operating mode described by Harris, E. D., Krane, S. M.; (Biochem. Biophys. Acta, 258, 566-576, 1972).
The gelatinase was incubated at 37° C. for 16 hours with radiomarked gelatin, and its activity was determined by the release of the soluble peptides produced by the enzymatic breakdown of the gelatin. The inhibiting concentration C150 for each compound was determined by measurement of the activity of the enzyme in the presence of the inhibitor at a concentration ranging between 10^−7 and 10^−12 M (the inhibitor is dissolved in the same manner as for collagenase).

[4] = tested on: release of TNF from the peritoneal macrophages of mice stimulated by LPS; test: Inhibition of the production of TNF in vitro; format: cell-based; details: Peritoneal macrophage; mouse peritoneal macrophages, LPS 100 ng/ml; read-out: C150 (μM) TNF
Method: The capacity of the compounds according to this invention to inhibit the release of TNF was determined from the peritoneal macrophages of mice stimulated by LPS (Lang, F., Robert, […], Petit, J. Y., J. Pharmacol. Exp. Ther., 275, 171-176, 1995). After an adhesion phase of 2 hours, the cells were treated for 1 hour with the compound to be tested at concentrations ranging between 10^-6 to 10^-9 M (the inhibitor is dissolved in DMSO at 10^-2 M, then at 5.10^-3 M in RPMI 1640 with 5% SVF, then diluted successively by tenths in the same medium), then stimulated by the addition of LPS (100 ng/ml in final concentration). Three hours later, the biological activity of the TNF in the supernatants was determined by a cytotoxicity test using the murine stock L929 in accordance with the operating procedure described by Band, G., Lin, […]., Evans, C. H. (Bioch. Biophys. Acta, 1134, 309-318, 1982). The pg/ml concentration of the TNF of the samples was determined from a murine αTNF standard curve, thus making it possible to define the inhibiting concentration […] of the compounds studied.

[5] = po, 50 mg/kg p.o., read-out: blood level, P.o. method, 10′
[6] = po, 50 mg/kg p.o., read-out: blood level, P.o. method, 20′
[7] = ip, 50 mg/kg i.p., read-out: blood level, I.p. method, 10′
[8] = ip, 50 mg/kg i.p., read-out: blood level, I.p. method, 20′
[9] = ip, 50 mg/kg i.p., read-out: blood level, I.p. method, 40′
[10] = po, 50 mg/kg p.o., read-out: blood level, P.o. method, 1 h

92 kDa gelatinase of human origin, sequence (P14780 94-707): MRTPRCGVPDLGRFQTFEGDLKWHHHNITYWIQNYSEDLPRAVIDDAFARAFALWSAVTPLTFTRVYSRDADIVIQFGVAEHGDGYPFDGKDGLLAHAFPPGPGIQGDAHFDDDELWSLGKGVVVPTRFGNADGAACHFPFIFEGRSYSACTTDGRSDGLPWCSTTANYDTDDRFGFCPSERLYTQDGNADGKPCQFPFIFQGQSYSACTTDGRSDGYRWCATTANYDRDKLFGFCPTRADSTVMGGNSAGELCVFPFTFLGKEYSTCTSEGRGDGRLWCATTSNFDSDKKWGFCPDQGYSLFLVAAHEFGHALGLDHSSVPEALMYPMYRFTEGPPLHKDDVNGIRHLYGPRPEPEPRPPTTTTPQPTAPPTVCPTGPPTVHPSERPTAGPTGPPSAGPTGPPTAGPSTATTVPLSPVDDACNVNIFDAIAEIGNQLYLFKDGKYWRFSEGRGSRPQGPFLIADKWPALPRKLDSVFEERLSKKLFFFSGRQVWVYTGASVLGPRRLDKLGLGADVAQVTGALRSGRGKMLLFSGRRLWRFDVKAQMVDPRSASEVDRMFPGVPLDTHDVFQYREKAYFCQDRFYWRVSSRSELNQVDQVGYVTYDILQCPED

SMILES | concentration at 10 min [1, 5] | concentration at 20 min [1, 6] | concentration at 10 min [1, 7] | concentration at 20 min [1, 8] | IC50 [2] | IC50 [3] | IC50 [4] | further results
CNC(=O)[C@@H](NC(=O)[C@H](CC(C)C)[C@H](O)C(=O)NO)C(C)C | 2200 ng/mL | 4300 ng/mL | 20000 ng/mL | 9000 ng/mL |  |  |  | concentration at 40 min [1, 9]: 47000 ng/mL; concentration at 30 min ([1]; po, 50 mg/kg p.o., 30′, read-out: blood level, P.o. method, 30′): 300 ng/mL; concentration at 1 h [1, 10]: 500 ng/mL; concentration at 24 h ([1]; po, 50 mg/kg p.o.): 170 ng/mL
CNC(=O)[C@H](Cc1ccc(OC)cc1)NC(=O)C(O)(CC(C)C)[C@H](O)C(=O)NO (some centres unmarked) | 10000 ng/mL | 9000 ng/mL | 20000 ng/mL | 0 ng/mL |  |  |  | concentration at 40 min [1, 9]: 4000 ng/mL; concentration at 1 h [1, 10]: 9000 ng/mL; concentration at 24 h ([1]; po, 50 mg/kg p.o.): 9000 ng/mL
CNC(=O)[C@@H](NC(=O)C(O)(CC(C)C)[C@H](C)C(=O)NO)C(C)(C)C (some centres unmarked) |  |  | 56000 ng/mL | 22000 ng/mL |  |  |  | concentration at 1 h ([1]; ip, 50 mg/kg i.p., read-out: blood level, I.p. method, 1 h): 3500 ng/mL
CNC(=O)[C@H](Cc1ccc(OC)cc1)NC(=O)[C@](O)(CC(C)C)C(C)N(O)C=O (mixture of isomers) [Example 38, N-2(S)-[1(N-hydroxy-N-formyl)ethyl]2(S)-hydroxy4-methylpentanoyl-o-methyl L-tyrosine methylamide] |  |  |  |  | 130 nM | 17 nM | 3.2 µM | 
CNC(=O)[C@H](Cc1c[nH]c2ccccc12)NC(=O)[C@](O)(CC(C)C)[C@H](C)C(=O)NO [Example 26, N-2-(S)[1(S) hydroxycarbamoyl-1 ethyl]-2(S)hydroxy-4-methylpentanoyl L-tryptophan N-methylamide] |  |  |  |  |  | 0.6 nM | 4.4 µM | 

Continued, in another order:

concentration at 10 min [1, 5] | concentration at 20 min [1, 6] | concentration at 10 min [1, 7] | concentration at 20 min [1, 8] | IC50 [2] | IC50 [3] | IC50 [4] | SMILES | further results
600 ng/mL | 300 ng/mL |  |  |  |  |  | CNC(=O)C(Cc1ccc(Cl)c(Cl)c1)NC(=O)[C@](O)(CC(C)C)[C@H](C)C(=O)NO (some centres unmarked) | concentration at 40 min ([1]; po, 50 mg/kg p.o., read-out: blood level, P.o. method, 40′): 600 ng/mL
 |  |  |  |  |  | 1.6 µM | CC(C)C[C@@](O)(C(=O)NC(Cc1ccc(Cl)cc1)C(=O)NCCN1CCOCC1)C(C)C(=O)NO (some centres unmarked) [Example 12b] | 
 |  |  |  | 22 nM | 8 nM |  | CC(C)C[C@@](O)(C(=O)NC(Cc1ccc(Cl)cc1)C(=O)NCCN1CCOCC1)[C@H](C)C(=O)NO (some centres unmarked) [Example 12b] | 
 |  |  |  | 2.4 nM |  | 0.13 µM | CNC(=O)[C@H](Cc1cccc(Cl)c1)NC(=O)[C@](O)(CC(C)C)[C@H](C)C(=O)NO [Example 22, N-2(S)-[1(S) hydroxycarbamoyl-1 ethyl]-2(S) hydroxy-4-methylpentanoyl L-3-chlorophenylalanine N-methylamide] | 
 |  |  |  |  | 1.7 nM |  | CC(C)C[C@@](O)(C(=O)N[C@@H](Cc1ccc(Cl)cc1)C(=O)NCCC#N)[C@H](C)C(=O)NO [Example 27, N-2(S)[1(S) hydroxycarbamoyl-1 ethyl]-2(S)hydroxy-4-methylpentanoyl L-4-chlorophenylalanine N-(2-cyano-1-ethyl) amide] | 
